{"source": "patent US20260285847A1", "about": "“SYMMETRIC AMINOINDOLE-LINKED TRIAZINE FOR A DUAL EFFECT ON ALPHA-SYNUCLEIN AND TAU ISOFORM 2N4R FIBRILLIZATION” (Purdue Research Foundation, priority 2023, published 2026)", "key": {"tau isoform 2N4R [1]": {"biological_target": "T1, tau isoform 2N4R (Homo sapiens, UniProt P10636)", "T1 construct": "made in house; host or cells: E. coli BL21(DE3)", "T1 sequence (P10636 1-441 isoform P10636-8)": "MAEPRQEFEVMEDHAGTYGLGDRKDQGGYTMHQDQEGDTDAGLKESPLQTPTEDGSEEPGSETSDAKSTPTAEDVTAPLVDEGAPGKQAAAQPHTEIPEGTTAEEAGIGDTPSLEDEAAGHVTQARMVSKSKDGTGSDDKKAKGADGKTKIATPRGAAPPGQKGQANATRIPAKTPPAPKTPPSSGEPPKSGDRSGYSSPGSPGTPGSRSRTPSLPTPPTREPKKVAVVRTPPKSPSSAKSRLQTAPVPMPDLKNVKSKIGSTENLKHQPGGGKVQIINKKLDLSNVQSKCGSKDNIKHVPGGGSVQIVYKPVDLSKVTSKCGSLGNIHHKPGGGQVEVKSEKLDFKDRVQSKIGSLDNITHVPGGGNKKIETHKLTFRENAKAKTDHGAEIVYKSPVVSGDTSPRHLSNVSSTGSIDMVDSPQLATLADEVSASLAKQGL", "experiment": "ThT fluorescence assay of tau isoform 2N4R fibril formation", "assay_type": "biochemical", "conditions": "compound 100 μM, tau 2N4R 6 μM", "protocol": "(§1) Chemical and peptide source. DMSO and thioflavin-T (ThT) were purchased from Alfa Aesar (Ward Hill, MA). Procuration of recombinant α-syn was from rPeptide (WatKinsville, GA). The recombinant p-tau isoform 1N4R was prepared as published previously.^31, 36 Concerning the preparation of tau 2N4R, bacterial expression plasmid consisting of the vector pRK172 carrying a cDNA encoding the human Tau 2N4R isoform was a kind gift of Dr. David Eliezer (Weill Cornell Medicine). For protein expression, E. coli BL21(DE3) cells were transformed with the plasmid and grown in LB media supplemented with ampicillin (100 μg/mL). Protein over-expression was induced by the addition of 1 mM IPTG for 4 h at 37° C., and cells were pelleted by centrifugation at 6,000 g for 15 min at 4° C. The cells were resuspended in lysis buffer (20 mM MES, 400 mM NaCl, 0.2 mM MgCl2, 1 mM EGTA, protease inhibitor cocktail (P8340, Sigma Aldrich), 0.25 mg/mL lysozyme, and 1 μg/mL DNase I, pH 6.8) and lysed by a French press cell disruptor at 4° C., and the lysate was boiled for 20 min. Denatured proteins were pelleted by centrifugation at 30,000 g for 30 min at 4° C., and the supernatant was dialyzed overnight against cation exchange buffer (20 mM MES, 50 mM NaCl, 1 mM MgCl2, 1 mM EGTA, 2 mM DTT, 0.1 mM PMSF, pH 6.8). The dialysate was loaded onto a HiPrep SP HP column, and proteins were eluted with a linear gradient ranging from 50 mM to 1 M NaCl. Fractions containing tau isoform 2N4R were pooled, and the resulting protein solution was dialyzed against PBS (pH 7.4) and stored at −80° C."}, "α-syn": {"biological_target": "T2, α-syn (Homo sapiens, UniProt P37840)", "T2 construct": "purchased rPeptide", "experiment": "Transmission electron microscopy (TEM) of α-syn fibrils", "assay_type": "biochemical", "conditions": "protein 60 μM, compound 600 μM (1:10), 24 hours at 37° C.", "protocol": "(§2) To confirm the general anti-fibrillar effect of compound 10, transmission electron microscopy (TEM) was used as an orthogonal assay. After incubating recombinant proteins (at 60 μM) with 600 μM compound 10 for 24 hours at 37° C., TEM was utilized to detect fibril formation.^32 A volume of 10 μL was applied on a 400-mesh Formvar-carbon-coated copper grid (Electron Microscopy Sciences, Hatfield, PA). The grids were incubated for 1 minute and washed three times with distilled water. They were carefully air-dried and incubated for 1 minute in a fresh solution of 1% uranyl acetate. Samples were air-dried and observed using a transmission microscope. Visualization of the grids was performed with transmission electron microscopy (JEOL 1400 Flash, Japan). Acquisition of pictures was performed with the following settings: accelerating voltage of 100 kV and magnification of 40k."}, "tau isoform 2N4R [2]": {"biological_target": "T1, tau isoform 2N4R", "experiment": "TEM of tau isoform 2N4R fibrils", "assay_type": "biochemical", "conditions": "protein 60 μM, compound 600 μM (1:10), 24 hours at 37° C.", "protocol": "as §1\nTo confirm the general anti-fibrillar effect of compound 10, transmission electron microscopy (TEM) was used as an orthogonal assay. After incubating recombinant proteins (at 60 μM) with 600 μM compound 10 for 24 hours at 37° C., TEM was utilized to detect fibril formation.^32 A volume of 10 μL was applied on a 400-mesh Formvar-carbon-coated copper grid (Electron Microscopy Sciences, Hatfield, PA). The grids were incubated for 1 minute and washed three times with distilled water. […]"}, "p-tau isoform 1N4R": {"biological_target": "T3, p-tau isoform 1N4R (Homo sapiens, UniProt P10636)", "T3 construct": "made in house", "T3 sequence (P10636 1-412 isoform P10636-7)": "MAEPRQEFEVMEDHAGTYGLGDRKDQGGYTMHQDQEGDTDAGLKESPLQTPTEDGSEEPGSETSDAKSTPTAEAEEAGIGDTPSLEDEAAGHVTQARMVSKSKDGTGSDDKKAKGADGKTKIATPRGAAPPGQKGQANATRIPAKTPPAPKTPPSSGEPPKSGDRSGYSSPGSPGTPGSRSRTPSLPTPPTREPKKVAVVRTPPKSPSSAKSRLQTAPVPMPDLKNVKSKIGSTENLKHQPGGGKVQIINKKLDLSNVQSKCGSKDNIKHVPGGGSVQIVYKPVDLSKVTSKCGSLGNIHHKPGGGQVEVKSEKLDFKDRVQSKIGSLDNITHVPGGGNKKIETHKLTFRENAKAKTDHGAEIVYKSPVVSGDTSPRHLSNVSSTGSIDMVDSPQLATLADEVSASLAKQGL", "assay_type": "biochemical", "conditions": "protein 60 μM, compound 600 μM (1:10), 24 hours at 37° C.", "protocol": "as §2"}, "[3]": {"experiment": "α-syn inclusion formation in dox-inducible neuroblastoma cells", "assay_type": "cell-based", "conditions": "human, m17d neuroblastoma cells; read-out: concentration from which a small level of toxicity is seen (cell confluence)", "protocol": "(§3) The dox-inducible neuroblastoma cell line M17D-TR/αS3K::YFP was used to evaluate the effect of compounds in preventing the formation of inclusion following induction with Dox. Dox-inducible neuroblastoma cells M17D-TR/αS-3K::YFP have been used previously. 96-well plates were used with cellular density of 30,000 cells per well. Compounds were added after 24 h and aS-3K::YFP transgene expression was induced […]. Induction was done by adding 1 μg per mL (final concentration) dox to culture media. Cells were incubated in the Incucyte Zoom 2000 platform (Essen Biosciences) and images (green, bright field) were taken continuously. Endpoint analysis of inclusion formation or growth was performed 48 h after induction (96 h after plating). The Incucyte processing definition ‘Inclusions’ was created as follows: Parameters, Fixed Threshold, Threshold (GCU) 50; Edge Split On, Edge Sensitivity 100; Cleanup, Hole Fill (μm^2): 10, Adjust Size (pixels): 0; Filters, Area (μm^2): max 50, Mean Intensity: min 60, Integrated Intensity: min 2000. […] As described previously for the evaluation of protein expression by SDS-PAGE and Western Blotting in the LiCor system, αS-specific monoclonal antibody 4B12 (Thermofisher, Waltham, MA; 1:1000) and a polyclonal antibody to GAPDH (Sigma-Aldrich, St. Louis, MO, G9545; 1:5000) were used."}, "[4]": {"tested_on": "M17D-TR/αS3K::YFP neuroblastoma cells", "experiment": "α-syn inclusion formation in dox-inducible neuroblastoma cells", "assay_type": "cell-based", "protocol": "as §3"}, "[5]": {"tested_on": "Aβ-plaques isolated from AD brains", "experiment": "Ex vivo disaggregation of Aβ-plaques (TEM)", "design": "species or system human", "conditions": "compound 50 μM, 120 hours at 37° C., vs 1.5% DMSO", "text": "(§4) Amyloid-β plaques were purified from postmortem human AD brains obtained from patients diagnosed with advanced Alzheimer's (Braak stage V or VI) (Tissue Biobank at Case Western Reserve University-Cleveland Clinic) using ultracentrifugation with a sucrose gradient and cell sorting, as previously published.^38-39 Purified amyloid-β plaques were examined with polarized and fluorescence microscopy (Congo Red and Thioflavin-S staining) and scanning electron microscopy. Each aliquot of amyloid-β plaques was solubilized with 60 μL of 10 mM PBS buffer (pH 7.4). One extraction consisted of 0.28 mg/ml of protein, as measured with nanodrop (A260/280 nm). A volume of 20 μL of extraction was incubated with 1.5% DMSO (control) or compound 10 (50 μM) for 120 hours at 37° C. prior to visualization by transmission electron microscopy.\n(§5) The protein quantification of the plaques isolated from AD brains were measured with nanodrop. […] Compound 10 was tested at 50 μM based on the protein levels and results obtained with PICUP experiments (FIG. 7). AP-plaque samples were incubated with 1.5% DMSO (control) or compound 10 (50 μM) in 10 mM PBS buffer (pH 7.4) for 120 hours at 37° C. prior to visualization by transmission electron microscopy. During the visualization of the grids, several paired helical filaments were observed."}, "[6]": {"tested_on": "paired helical filaments isolated from AD brains", "experiment": "Ex vivo disaggregation of paired helical filaments (TEM)", "design": "species or system human", "conditions": "compound 50 μM, 120 hours at 37° C., vs 1.5% DMSO", "text": "as §4, §5"}, "[7]": {"experiment": "Half-life and brain penetration in mice", "assay_type": "in vivo", "conditions": "CD1 mice, 1 mg/kg", "text": "The concentration ration plasma:brain is near to one which is adequate."}}, "note": "“Also recorded” adds a separate entry of the source.", "data": [{"smiles": "c1cc(Nc2ncnc(Nc3cccc4[nH]ccc34)n2)c2cc[nH]c2c1", "note": "[Compound 10, N2,N4-bis(1H-indol-4-yl)-1,3,5-triazine-2,4-diamine]", "values": [{"measurement": "elongation rate of tau isoform 2N4R fibrillization", "setting": "tau isoform 2N4R [1]", "value": "slower elongation rate"}, {"measurement": "tau isoform 2N4R fibrillization (in words)", "setting": "tau isoform 2N4R [1]; heparin 1.5 μM", "value": "markedly inhibited tau isoform 2N4R fibrillization"}, {"measurement": "α-syn fibril ultrastructure (TEM)", "setting": "α-syn", "value": "a range of shorter fibrils to amorphous protein; also recorded: rare short fibrils"}, {"measurement": "tau isoform 2N4R fibril ultrastructure (TEM)", "setting": "tau isoform 2N4R [2]", "value": "needle-shaped short fibrils; also recorded: very short needle shaped fibrils admixed with debris"}, {"measurement": "p-tau isoform 1N4R fibril ultrastructure (TEM)", "setting": "p-tau isoform 1N4R", "value": "less fibrils resulted from this treatment"}, {"measurement": "MCC", "setting": "[3]", "value": "≥ 10", "unit": "µM"}, {"measurement": "minimal effective concentration", "setting": "[4]; Neuroblastoma cell, read-out: concentration from which α-syn inclusion body formation is reduced", "value": "≥ 2.5", "unit": "µM"}, {"measurement": "α-syn expression levels (Western blot)", "setting": "[4]; compound 10 μM", "value": "reduced"}, {"measurement": "toxicity (cell confluence, in words)", "setting": "[4]; compound 40 μM", "value": "more intense toxicity"}, {"measurement": "α-syn inclusion formation (punctate YFP signal, in words)", "setting": "[4]; compound 7: 2.5 to 20 μM, compound 10: 2.5 to 40 μM, readout 96 h after plating, vs 0.1% DMSO", "value": "reduced α-syn inclusion formation"}, {"measurement": "disaggregation of Aβ-plaques (TEM, in words)", "setting": "[5]", "value": "smaller AP-plaques; also recorded: disaggregated human Aβ plaques and NFTs"}, {"measurement": "disaggregation of paired helical filaments (TEM, in words)", "setting": "[6]", "value": "shorter paired helical filaments; also recorded: disaggregated human Aβ plaques and NFTs"}, {"measurement": "concentration ratio plasma:brain", "setting": "[7]", "value": "near to one"}, {"measurement": "crossing of the blood brain barrier", "setting": "[7]", "value": "crossed the blood brain barrier"}, {"measurement": "half-life", "setting": "[7]", "value": "short half-life"}]}]}
